Results taken from the supplement of paper PMC10307832.

Legend:
Assay in all cases: relative viability (nuclei count vs DMSO), 5 days (fraction); higher = more cells survive
[1] = compound: CCn1c(-c2nonc2N)nc2c(C#CC(C)(C)O)ncc(OC[C@H]3CCCNC3)c21 + O=C(c1cc(Cc2n[nH]c(=O)c3ccccc23)ccc1F)N1CCN(C(=O)C2CC2)CC1 [Olaparib] (partner 8 µM)
How it was run: (§1)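 Relative viability is defined as nuclei in treated wells over nuclei in vehicle wells. Duplicate plates were run and medians reported. Lung cancer cell lines in 1536-well plates were dosed by pin tool one day after seeding, with one drug or with a fixed anchor-drug dose plus five library-drug doses (not always all listed) in √10 steps, and nuclei were counted after 5 days.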

[2] = compound: CCn1c(-c2nonc2N)nc2c(C#CC(C)(C)O)ncc(OC[C@H]3CCCNC3)c21 + C[C@@H](Oc1cc(-c2cnn(C3CCNCC3)c2)cnc1N)c1c(Cl)ccc(F)c1Cl [Crizotinib] (partner 1 µM)
How it was run: as §1

[3] = compound: CCn1c(-c2nonc2N)nc2c(C#CC(C)(C)O)ncc(OC[C@H]3CCCNC3)c21 + Nc1nc2[nH]cc(CCc3ccc(C(=O)N[C@@H](CCC(=O)O)C(=O)O)cc3)c2c(=O)[nH]1 [Pemetrexed] (partner 0.2 µM)
How it was run: as §1

BAM7 + Linsitinib = compound: CCOC1=CC=CC=C1N=NC2=C(NN(C2=O)C3=NC(=CS3)C4=CC=CC=C4)C [BAM7] + C[C@]1(O)C[C@@H](c2nc(-c3ccc4ccc(-c5ccccc5)nc4c3)c3c(N)nccn32)C1 [Linsitinib] (partner 1 µM)
How it was run: as §1

Row | Cell Line | relative viability ([1]; first compound 0.01 µM) | relative viability ([1]; first compound 0.03162 µM) | relative viability ([1]; first compound 0.1 µM) | relative viability ([1]; first compound 0.3162 µM) | relative viability ([1]; first compound 1 µM) | relative viability ([2]; first compound 0.01 µM) | relative viability ([2]; first compound 0.03162 µM) | relative viability ([2]; first compound 0.1 µM) | relative viability ([2]; first compound 0.3162 µM) | relative viability ([2]; first compound 1 µM) | relative viability ([3]; first compound 0.01 µM) | relative viability ([3]; first compound 0.03162 µM) | relative viability ([3]; first compound 0.1 µM) | relative viability ([3]; first compound 0.3162 µM) | relative viability ([3]; first compound 1 µM) | relative viability (BAM7 + Linsitinib; first compound 0.5 µM) | relative viability (BAM7 + Linsitinib; first compound 5 µM) | relative viability (BAM7 + Linsitinib; first compound 15.81 µM) | relative viability (BAM7 + Linsitinib; first compound 50 µM)
1 | NCI-H1792 | 0.53 | 0.502 | 0.473 | 0.374 | 0.589 | 0.961 | 0.948 | 0.95 | 0.891 | 0.78 | 0.759 | 0.684 | 0.632 | 0.782 | 0.687 | 0.64 | 0.54 | 0.542 | 0.628
2 | SK-LU-1 | 0.49 | 0.723 | 0.482 | 0.43 | 0.461 | 1.11 | 0.817 | 0.925 | 0.978 | 0.987 | 0.869 | 0.985 | 0.823 | 0.929 | 0.855 | 0.969 | 1.21 | 1.22 | 1.21
3 | NCI-H2009 | 0.655 | 0.673 | 0.682 | 0.685 | 0.75 | 0.941 | 1.03 | 1.09 | 1.02 | 1.07 | 1.08 | 1.09 | 1.06 | 1.14 | 1.06 | 1.27 | 1.2 | 1.15 | 1.16
4 | LOU-NH91 | 0.936 | 0.914 | 0.936 | 0.797 | 0.856 | 0.758 | 0.747 | 0.742 | 0.543 | 0.754 | 0.403 | 0.366 | 0.419 | 0.4 | 0.399 | 0.912 | 0.936 | 0.893 | 0.996
5 | NCI-H2405 | 0.836 | 0.844 | 0.821 | 0.8 | 0.915 | 0.888 | 0.911 | 0.704 | 0.798 | 0.848 | 1.03 | 1.12 | 0.964 | 0.96 | 1.13 | 1.02 | 0.881 | 0.865 | 1.09
6 | LCLC-97TM1 | 0.413 | 0.509 | 0.347 | 0.391 | 0.321 |  | 0.435 | 0.331 | 0.333 | 0.367 | 0.169 | 0.179 | 0.141 | 0.147 | 0.175 | 0.174 | 0.184 | 0.176 | 0.179
7 | NCI-H596 | 0.682 |  | 0.72 | 0.697 | 0.871 | 0.834 | 1.08 | 0.996 | 0.915 | 0.948 | 0.48 |  | 0.443 | 0.47 | 0.5 | 1.05 | 1.15 | 1.02 | 1.14
8 | H3255 | 0.571 | 0.59 | 0.638 | 0.483 | 0.564 | 0.805 | 0.983 | 0.804 | 0.598 | 0.782 | 0.543 | 0.571 | 0.618 | 0.536 | 0.548 | 0.901 | 1.02 | 0.606 | 0.848
